Test results as given in patent US11446394B2, “Lipid nanoparticle formulations comprising lipidated cationic peptide compounds for nucleic acid delivery” (NUTCRACKER THERAPEUTICS, INC., priority 2018, dated 2022).

Experiments:
[1] = mRNA encapsulation by Qubit RNA HS dye fluorescence before and after Triton X-100 lysis; format: physicochemical; conditions: percentage of mRNA encapsulation; Fluc mRNA/peptoid formulation, 5:1 mass ratio peptoid:cargo
Procedure: (§1) To prepare nanoparticle formulations, the tertiary amino lipidated and/or PEGylated cationic peptide compound is mixed by pipetting with nucleic acid at a mass ratio between approximately 1:1 (peptide compound:cargo) and 20:1. Prior to formulation, tertiary amino lipidated and/or PEGylated cationic peptide compounds and cargo (such as nucleic acid) are diluted in ethanol and acidic buffer (PBS adjusted to pH 5.5 with 0.1 M HCl) respectively to a volume ratio of 1:3 and to target a final cargo concentration of approximately 0.05 mg/mL to 0.2 mg/mL. The exemplary amino lipidated cationic peptoids 1-36 described in Example 2 were combined with firefly luciferase (Fluc) mRNA to form nanoparticle compositions to be evaluated for therapeutic and/or prophylactic purposes in vitro or in vivo. The formulations were prepared according to the protocol of Example 3 and mixed by simple pipetting. The mRNA/peptoid formulation at a 5:1 mass ratio of peptoid:cargo were evaluated by dynamic light scattering (DLS) in order to determine the volume average particle size/diameter (nm) of the mRNA/peptoid complex and the size polydispersity index (PDI) within the formulation. The percentage of mRNA encapsulation for each formulation of the exemplary compounds were determined by fluorescence of the Qubit RNA HS (Invitrogen) dye before and after lysis of particles by Triton X-100.

HeLa cells = test: In vitro firefly luciferase (Fluc) expression after treatment with Fluc mRNA/amino lipidated peptoid formulations; format: cell-based; conditions: peptoid:Fluc mRNA 5:1 w/w, 100 ng/well; for Luciferase Expression (RLU) 6 h: 6 hours of treatment; for Luciferase Expression (RLU) 24 h: 24 hours of treatment
Procedure: The efficacy of mRNA/amino lipidated peptoid formulations was evaluated in vitro based on their ability to deliver the firefly luciferase (Fluc) reporter gene to cultured cells. The amino lipidated cationic peptoids 1-36 of Example 2 were individually combined with Fluc mRNA at a 5:1 w/w ratio, and the resulting particles were added to cultured HeLa cells at a dose of 100 ng/well (in 100 μL total volume). The resulting luciferase expression (RLU) was measured by a luminescence plate reader after 6 hours and 24 hours of treatment.

[2] = Dynamic light scattering of Fluc mRNA/peptoid formulations (particle size, PDI); format: physicochemical; conditions: Fluc mRNA/peptoid formulation, 5:1 mass ratio peptoid:cargo; for Size PDI: size polydispersity index by DLS; for Size (nm): volume average particle size/diameter by DLS
Procedure: as §1

Structure (SMILES)	% Encapsulation [1]	Size PDI [2]	Size (nm) [2]	Luciferase Expression (RLU) 6 h (HeLa cells)	Luciferase Expression (RLU) 24 h (HeLa cells)
CCCCCCCCCCN(CC(N)=O)C(=O)CN(CCCCCCCCCC)C(=O)CN(CCc1ccccc1)C(=O)CN(CCc1ccccc1)C(=O)CN(CCN)C(=O)CN(CCc1ccccc1)C(=O)CN(CCc1ccccc1)C(=O)CN(CCN)C(=O)CN(CCc1ccccc1)C(=O)CN(CCc1ccccc1)C(=O)CN(CCN)C(=O)CN(CCc1ccccc1)C(=O)CN(CCc1ccccc1)C(=O)CN(CCN)C(=O)CN(CCc1ccccc1)C(=O)CN(CCc1ccccc1)C(=O)CNCCN [Compound 12]	86.5%	0.211	224.4 nm	4.04E+02 RLU	5.71E+02 RLU
CCCCCCCCCCN(CC(=O)N(CC(=O)N(CCCCCCCCCC)CC(=O)N(CC(N)=O)CC(CC)CCCC)CC(CC)CCCC)C(=O)CN(CCc1ccccc1)C(=O)CN(CCc1ccccc1)C(=O)CN(CCN)C(=O)CN(CCc1ccccc1)C(=O)CN(CCc1ccccc1)C(=O)CN(CCN)C(=O)CN(CCc1ccccc1)C(=O)CN(CCc1ccccc1)C(=O)CNCCN (stereo not shown) [Compound 24]	87.0%	0.135	161 nm	1.79E+04 RLU	3.43E+04 RLU
CCCCCCCCCCN(CC(N)=O)C(=O)CN(CCCCCCCCCC)C(=O)CN(CCCCCCCCCC)C(=O)CN(CCCCCCCCCC)C(=O)CN(CCc1ccccc1)C(=O)CN(CCc1ccccc1)C(=O)CN(CC1CCCN1)C(=O)CN(CCc1ccccc1)C(=O)CN(CCc1ccccc1)C(=O)CN(CC1CCCN1)C(=O)CN(CCc1ccccc1)C(=O)CN(CCc1ccccc1)C(=O)CNCC1CCCN1 (stereo not shown) [Compound 34]	58.0%	0.295	348.4 nm	1.95E+03 RLU	2.71E+03 RLU
CCCCCCCCCCN(CC(N)=O)C(=O)CN(CCCCCCCCCC)C(=O)CN(CCCCCCCCCC)C(=O)CN(CCCCCCCCCC)C(=O)CN(CCc1ccccc1)C(=O)CN(CCc1ccccc1)C(=O)CN(CC1CCCN1)C(=O)CN(CCc1ccccc1)C(=O)CN(CCc1ccccc1)C(=O)CN(CC1CCCN1)C(=O)CN(CCc1ccccc1)C(=O)CN(CCc1ccccc1)C(=O)CN(CC1CCCN1)C(=O)CN(CCc1ccccc1)C(=O)CN(CCc1ccccc1)C(=O)CNCC1CCCN1 (stereo not shown) [Compound 35]	38.0%	0.486	359.8 nm	1.22E+03 RLU	1.60E+03 RLU

Further lines, with some results ahead:

% Encapsulation [1]	Size PDI [2]	Size (nm) [2]	Structure (SMILES)	Luciferase Expression (RLU) 6 h (HeLa cells)	Luciferase Expression (RLU) 24 h (HeLa cells)
82.5%	0.077	234 nm	CCCCCCCCCCN(CC(N)=O)C(=O)CN(CCCCCCCCCC)C(=O)CN(CCCCCCCCCC)C(=O)CN(CCCCCCCCCC)C(=O)CN(CCc1ccccc1)C(=O)CN(CCc1ccccc1)C(=O)CN(CCN)C(=O)CN(CCc1ccccc1)C(=O)CN(CCc1ccccc1)C(=O)CN(CCN)C(=O)CN(CCc1ccccc1)C(=O)CN(CCc1ccccc1)C(=O)CNCCN [Compound 8]	1.10E+04 RLU	1.33E+04 RLU
70.9%	0.158	276 nm	CCCCCCCCCCN(CC(N)=O)C(=O)CN(CCCCCCCCCC)C(=O)CN(CCCCCCCCCC)C(=O)CN(CCCCCCCCCC)C(=O)CN(CCCCCCCCCC)C(=O)CN(CCc1ccccc1)C(=O)CN(CCc1ccccc1)C(=O)CN(CCN)C(=O)CN(CCc1ccccc1)C(=O)CN(CCc1ccccc1)C(=O)CN(CCN)C(=O)CN(CCc1ccccc1)C(=O)CN(CCc1ccccc1)C(=O)CNCCN [Compound 19]	8.20E+03 RLU	1.09E+04 RLU
65.4%	0.174	386.5 nm	CCCCCCCCCCN(CC(N)=O)C(=O)CN(CCCCCCCCCC)C(=O)CN(CCCCCCCCCC)C(=O)CN(CCCCCCCCCC)C(=O)CN(CCCCCCCCCC)C(=O)CN(CCc1ccccc1)C(=O)CN(CCc1ccccc1)C(=O)CN(CCN)C(=O)CN(CCc1ccccc1)C(=O)CN(CCc1ccccc1)C(=O)CN(CCN)C(=O)CN(CCc1ccccc1)C(=O)CN(CCc1ccccc1)C(=O)CN(CCN)C(=O)CN(CCc1ccccc1)C(=O)CN(CCc1ccccc1)C(=O)CNCCN [Compound 21]	3.45E+03 RLU	1.24E+04 RLU
24.8%	0.237	343.4 nm	CCCCCCCCCCN(CC(N)=O)C(=O)CN(CCCCCCCCCC)C(=O)CN(CCCCCCCCCC)C(=O)CN(CCCCCCCCCC)C(=O)CN(CCc1ccccc1)C(=O)CN(CCc1ccccc1)C(=O)CN(CCCN)C(=O)CN(CCc1ccccc1)C(=O)CN(CCc1ccccc1)C(=O)CN(CCCN)C(=O)CN(CCc1ccccc1)C(=O)CN(CCc1ccccc1)C(=O)CN(CCCN)C(=O)CN(CCc1ccccc1)C(=O)CN(CCc1ccccc1)C(=O)CNCCCN [Compound 29]	1.64E+03 RLU	6.72E+03 RLU
